The values below come from patent US8486991B2, “Enantiomerically pure phosphoindoles as HIV inhibitors” (Idenix Pharmaceuticals, Inc., priority 2006, dated 2013).

By IC50 is commonly meant the point on the concentration scale where inhibition reaches its midpoint. One may read the half-life as how long it takes for the measured level to halve.

For one series, the target named is CYP3A4 (Homo sapiens, UniProt P08684). The series is described as follows: Recombinant CYP450 inhibition, fluorometric, CYP3A4. The series is classed as in vitro ADME. The arrangement: from tissue; host or cells: pooled human liver microsomes. As for the experimental part: (§1) Compounds were assayed using recombinant human microsomal proteins with fluorometric substrates. Signal was measured with a Fusion plate reader utilizing the appropriate excitation and emission wavelength set to detect the specific metabolite: […]

Series [1] is described as follows: In vitro half-life in liver microsomes, human. The series is classed as in vitro ADME. Conditions: microsomes, up to one hour, longer half-lives are extrapolated, n=1. The method, then: (§2) In vitro metabolism was assessed using liver microsomes for all species. Compounds were incubated at 1 μM with liver microsomes for up to one hour. Reported half-lives greater than the total incubation time are extrapolated values. Extracts were assayed for disappearance of parent compound by LC-MS/MS detection.
(§3) Data represents one independent experiment conducted.

A short description of series [2]: In vitro half-life in liver microsomes, monkey. The series is classed as in vitro ADME. Conditions: microsomes, up to one hour, n=1. As for the experimental part: as §2, §3
On the technique in general: Microsomes from liver hold many membrane-bound enzymes, among them those of drug oxidation.

The nature of series [3]: In vitro half-life in liver microsomes, rat. The series is classed as in vitro ADME. Conditions: microsomes, up to one hour, longer half-lives are extrapolated, n=1. As for the experimental part: as §2, §3
Series [4] is described as follows: In vitro half-life in liver microsomes, dog. The series is classed as in vitro ADME. Conditions: microsomes, up to one hour, longer half-lives are extrapolated, n=1. As for the experimental part: as §2, §3
Another series concerns the target CYP2C9 (Homo sapiens, UniProt P11712). The series is described as follows: Recombinant CYP450 inhibition, Luciferin-H, CYP2C9. Conditions: highest concentration tested 10 μM. The series is classed as in vitro ADME. Also noted: from tissue; host or cells: pooled human liver microsomes. The method, then:
CYP2C9 inhibition was performed by incubating a luminogenic CYP450 substrate Luciferin-H with CYP2C9 and an NADPH regeneration system. Luminescence measured using a Fusion plate reader.

Series [5] relates to CYP3A4 (activation of PXR in DPX2 cells). As to the kind of experiment: CYP3A4 induction screen in DPX2 cells. The series is classed as cell-based, human. Conditions: extent compared with rifampicine, mifepristone, androstanol. From the text: The potential for in vitro induction of CYP3A4 was screened in DPX2 cells. The DPX2 cell line is a derivative of a human hepatocellular carcinoma cell line (HepG2) transformed with the human pregnane x receptor (PXR) and a reporter gene vector containing the enhancer region of CYP3A4. The potential for in vitro induction of CYP1A2 was screened in CYP1A2-DRE cells. The CYP1A2-DRE cell line is a stably transformed HepG2 cells with dioxin response elements (DRE) and reporter gene containing CYP1A2 promoter elements. The extent of CYP3A4 induction was determined by comparing the activation of PXR obtained with test article to that obtained with rifampicine (potent inducer), mifepristone (moderate inducer) and androstanol (weak inducer). The extent of CYP1A2 induction was determined by comparing the activation of the aryl hydrocarbon receptor (AhR) obtained with test article to that obtained with TCDD (potent inducer), omeprazole (moderate inducer), and 2-acetylaminofluorene (weak inducer).

The target in the next series is CYP2D6 (Homo sapiens, UniProt P10635). As to the kind of experiment: Recombinant CYP450 inhibition, fluorometric, CYP2D6. The series is classed as in vitro ADME. The arrangement: from tissue; host or cells: pooled human liver microsomes. Conditions: recombinant enzyme, read-out: percentage of inhibition at the highest concentration tested, CYP2D6. As for the experimental part:
as §1

SMILES strings stand for the structures.

Chain of CYP3A4 (P08684 whole entry, the tested form may be a part): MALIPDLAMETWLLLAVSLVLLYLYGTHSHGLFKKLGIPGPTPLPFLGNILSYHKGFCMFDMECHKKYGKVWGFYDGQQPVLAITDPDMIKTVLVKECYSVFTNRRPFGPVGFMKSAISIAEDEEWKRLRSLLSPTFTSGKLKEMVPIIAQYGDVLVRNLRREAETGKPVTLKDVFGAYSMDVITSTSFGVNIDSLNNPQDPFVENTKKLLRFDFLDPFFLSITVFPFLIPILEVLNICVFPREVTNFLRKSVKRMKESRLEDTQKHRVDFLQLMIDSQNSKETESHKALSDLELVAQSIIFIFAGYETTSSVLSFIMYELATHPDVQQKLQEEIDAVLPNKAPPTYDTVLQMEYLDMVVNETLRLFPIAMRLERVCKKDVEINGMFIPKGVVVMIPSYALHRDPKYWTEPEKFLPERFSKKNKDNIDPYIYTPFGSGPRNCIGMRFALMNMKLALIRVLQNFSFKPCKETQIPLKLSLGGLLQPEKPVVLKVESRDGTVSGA
Chain of CYP2C9 (P11712 whole entry, the tested form may be a part): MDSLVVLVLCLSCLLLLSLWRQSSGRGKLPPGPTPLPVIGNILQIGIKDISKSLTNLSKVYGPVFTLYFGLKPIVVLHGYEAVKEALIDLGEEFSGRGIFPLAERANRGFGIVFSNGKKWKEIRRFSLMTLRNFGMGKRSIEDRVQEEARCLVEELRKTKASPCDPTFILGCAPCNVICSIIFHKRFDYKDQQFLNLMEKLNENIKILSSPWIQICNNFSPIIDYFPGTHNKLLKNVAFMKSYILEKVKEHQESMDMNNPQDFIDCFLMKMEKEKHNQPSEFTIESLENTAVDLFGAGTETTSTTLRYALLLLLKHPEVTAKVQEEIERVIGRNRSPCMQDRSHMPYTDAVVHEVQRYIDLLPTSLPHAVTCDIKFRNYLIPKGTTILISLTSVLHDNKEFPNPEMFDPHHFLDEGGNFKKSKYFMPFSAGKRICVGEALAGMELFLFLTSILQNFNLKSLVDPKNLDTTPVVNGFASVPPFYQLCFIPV
Chain of CYP2D6 (P10635 whole entry): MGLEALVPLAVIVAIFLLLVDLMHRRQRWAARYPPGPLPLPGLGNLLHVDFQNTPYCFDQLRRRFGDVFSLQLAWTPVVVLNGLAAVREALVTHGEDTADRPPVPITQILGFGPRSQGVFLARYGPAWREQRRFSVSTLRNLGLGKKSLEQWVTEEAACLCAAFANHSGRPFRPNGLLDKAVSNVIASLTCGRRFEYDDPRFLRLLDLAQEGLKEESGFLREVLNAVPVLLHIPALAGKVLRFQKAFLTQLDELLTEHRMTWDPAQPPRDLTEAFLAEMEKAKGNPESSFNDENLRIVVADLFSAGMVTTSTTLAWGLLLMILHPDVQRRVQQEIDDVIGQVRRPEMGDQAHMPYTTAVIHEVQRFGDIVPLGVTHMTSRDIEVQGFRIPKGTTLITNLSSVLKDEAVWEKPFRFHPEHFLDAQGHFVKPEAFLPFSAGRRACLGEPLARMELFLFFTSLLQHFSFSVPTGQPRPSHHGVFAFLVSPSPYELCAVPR

Consider `COP(=O)(c1cc(C)cc(/C=C/C#N)c1)c1c(C(N)=O)[nH]c2ccc(Cl)c(F)c12` (racemic) [rac (I + II), 5-chloro-4-fluoro-3-[methyl 3-((E)-2-cyanovinyl)-5-methylphenyl]phosphinoyl-1H-indole-2-carboxamide], for which the IC50 on CYP3A4 is 1610 nM. For the same compound, the half-life at 1 μM is 1.92 h in series [1], 0.307 h in series [2], 2.43 h in series [3] and 4.78 h in series [4].

As for `COP(=O)(c1cc(C)cc(/C=C/C#N)c1)c1c(C(N)=O)[nH]c2ccc(Cl)cc12` (racemic) [rac (III + IV), 5-chloro-3-[methyl 3-((E)-2-cyanovinyl)-5-methylphenyl]phosphinoyl-1H-indole-2-carboxamide], the results for the IC50 at CYP2C9 and on CYP3A4 were 5990 nM and 2270 nM, respectively. The half-life at 1 μM in series [1] was 1.52 h; in series [2], 0.272 h; in series [3] it was 1.75 h; in series [4] it was 4.28 h. In series [5], the “Induction, DPX2 (CYP3A4)” value is “Moderate (n = 1)”. Also, the inhibition at 10 µM at CYP2D6 lay in the range of 16 to 23%.
